Results on one compound are retold here after patent US20080201790A1, “Method and product for regulating cell responsiveness to external signals” (priority 1993, published 2008).

In one experiment the test system is JNK. The experiment can be described thus: JNK solid state kinase assay (GST-Jun) in L929 cells. Format: cell-based, murine. To be noted: not shown. On the procedure:
(§1) In panel A cells were treated for 10 minutes with the indicated concentration of TNFα. JNK activation was measured using a solid phase kinase assay resulting in phosphorylation of GST-Jun. In […] the time course of MAPK activation is shown. MAPK was isolated from cell lysates on DEAE sephacel columns and MAPK activation was measured by phosphorylation of the EGFR peptide substrate. Panel C depicts the concentration curve of MAPK activation by TNFα. Cells were treated with the indicated concentration of TNFα and MAPK was assayed.
(§2) Cell lines and culture. L929 cells (ATCC CCL1 were maintained in Dulbecco's modified Eagle's medium with 5% newborn calf serum and 5% bovine calf serum (BCS) supplemented with 100 ug/ml streptomycin and 100 U/ml penicillin. The cells were grown in 10 cm dishes at 37° C. in 7.5% CO2. Cells were made quiescent where indicated by incubation in Dulbecco's modified Eagle's medium and 0.1% bovine serum albumin for 24 h. Recombinant murine TNFα and recombinant human bFGF (147aa) were from R&D Systems, Minneapolis, Minn. Cells were pretreated where indicated with the MEK-1 inhibitor PD#098059 (Parke-Davis Pharmaceutical Corp. Ann Arbor, Mich.) for 1 h at 37° C. Cells were stimulated by incubation with the indicated cytokine or growth factor for various times at 37° C. Stimulation was stopped by rinsing the plates twice with ice cold phosphate buffered saline (PBS) and lysing the cells in the appropriate lysis buffer. Cells were scraped from the plates and nuclei were pelleted for 10 min at 14,000 RPM in a microcentrifuge. JNK assay. JNK activity was measured using a solid state kinase assay in which glutathione S-transferase-c-Jun (1-79) (GST-JUN) cound to glutathione-Sepharose 4B beads was used to affinity purify JNK and then JNK activity was measured in an in vitro kinase assay using the sepharose bound GST-Jun as a substrate (Hibi, M., et al. (1993) Genes & Development 7:2135-2148). Stimulated or unstimulated cells were lysed in 0.5% Nonidet P-40, 20 mM HEPES pH 7.2, 100 mM NaCl, 2 mM dithiothreitol, 1 mM EDTA, 1.0 mM phenylmethylsulfonylfluoride, 1 μg/ml aprotinin and the nuclei pelleted. Lysates were normalized for protein content. JNK was affinity purified from 50-100 μg of cell lysate by the addition of 10 ul of GST-Jun sepharose slurry (2 μg GST-Jun). Binding to GST-Jun efficiently isolates the two major forms of JNK (p45 and p55) and under the conditions used JNK isolation was linear for 10-250 μg of cell lysate. The lysates were rotated at 4° C. for 1-3 h. Beads were washed twice in lysis buffer and then twice in PAN (10 mM PIPES, pH 7.0, 100 mM NaCl, 21 μg/ml aprotinin). Kinase reactions were carried out at 30° C. for 15 min in 20 mM Hepes pH 7.2, 20 mM β-glycerophosphate, 10 mM p-nitrophenyl phosphate, 10 mM MgCl2, 1 mM dithiothreitol, 50 μm sodium vanadate, 10 μCi γ^32P-ATP 4300 Ci/mmole. The kinase reaction was linear from 0-30 min. MAPK Assay MAPK activity was measured exactly as described previously (Gardner, A. M., et al. (1994) Meth. Enzymol. 238:258-270) with the exception that MonoQ FPLC fractionation was replaced by step elution from a DEAE-Sephacel column using 0.5 M NaCl in loading buffer. The eluate was assayed in triplicate using the epidermal growth factor receptor 662-681 peptide (EGFR662-681) as a selective substrate for MAPK activity (Heasley, L. E., et al. (1994) American Journal of Physiology (Renal Fluid Electrolyte Physiol. 36) 267:F366-F373). […] Cells were lysed by scraping in ice cold RIPA buffer (50 mM Tris-HCl, pH 7.2, 150 mM NaCl, 0.1% SDS, 0.5% sodium deoxycholate, 1.0% Triton X-100, 10 mM sodium pyrophosphate, 25 mM β-glycerophosphate, 2 mM sodium vanadate, 2.1 μg/ml aprotinin) and the nuclei were pelletted. […]

In the next experiment the test system is L929 cells. Description: Neutral red cell viability assay of L929 cells treated with TNFα and/or bFGF. Format: cell-based, murine. As to conditions: L929 cells. On the procedure: In panel A cells were treated with the indicated concentrations of TNFα for 15 hours and were assayed for uptake of neutral red. In panel B cells were untreated (solid bars), treated with 0.5 ng/ml bFGF (dotted bars) or 5.0 ng/ml bFGF (hatched bars) and the indicated concentrations of TNFα for 18 hours. Cell viability was assessed by neutral red assay.
In panel A serum starved L929 cells were untreated or treated for 1 hour at 37° C. with the MEK-1 inhibitor (PD) and then unstimulated or stimulated with bFGF. MAPK activity was measured. In panel B L929 cells were untreated or treated for 1 hour at 37° C. with PD and then were untreated or treated with TNFα alone or in combination with bFGF for 18 hours. Cell viability was assessed by neutral red assay.
Cell lines and culture. L929 cells (ATCC CCL1 were maintained in Dulbecco's modified Eagle's medium with 5% newborn calf serum and 5% bovine calf serum (BCS) supplemented with 100 ug/ml streptomycin and 100 U/ml penicillin. The cells were grown in 10 cm dishes at 37° C. in 7.5% CO2. Cells were made quiescent where indicated by incubation in Dulbecco's modified Eagle's medium and 0.1% bovine serum albumin for 24 h. Recombinant murine TNFα and recombinant human bFGF (147aa) were from R&D Systems, Minneapolis, Minn. Cells were pretreated where indicated with the MEK-1 inhibitor PD#098059 (Parke-Davis Pharmaceutical Corp. Ann Arbor, Mich.) for 1 h at 37° C. Cells were stimulated by incubation with the indicated cytokine or growth factor for various times at 37° C. Stimulation was stopped by rinsing the plates twice with ice cold phosphate buffered saline (PBS) and lysing the cells in the appropriate lysis buffer. Cells were scraped from the plates and nuclei were pelleted for 10 min at 14,000 RPM in a microcentrifuge. JNK assay. JNK activity was measured using a solid state kinase assay in which glutathione S-transferase-c-Jun (1-79) (GST-JUN) cound to glutathione-Sepharose 4B beads was used to affinity purify JNK and then JNK activity was measured in an in vitro kinase assay using the sepharose bound GST-Jun as a substrate (Hibi, M., et al. (1993) Genes & Development 7:2135-2148). Stimulated or unstimulated cells were lysed in 0.5% Nonidet P-40, 20 mM HEPES pH 7.2, 100 mM NaCl, 2 mM dithiothreitol, 1 mM EDTA, 1.0 mM phenylmethylsulfonylfluoride, 1 μg/ml aprotinin and the nuclei pelleted. Lysates were normalized for protein content. JNK was affinity purified from 50-100 μg of cell lysate by the addition of 10 ul of GST-Jun sepharose slurry (2 μg GST-Jun). Binding to GST-Jun efficiently isolates the two major forms of JNK (p45 and p55) and under the conditions used JNK isolation was linear for 10-250 μg of cell lysate. The lysates were rotated at 4° C. for 1-3 h. Beads were washed twice in lysis buffer and then twice in PAN (10 mM PIPES, pH 7.0, 100 mM NaCl, 21 μg/ml aprotinin). Kinase reactions were carried out at 30° C. for 15 min in 20 mM Hepes pH 7.2, 20 mM β-glycerophosphate, 10 mM p-nitrophenyl phosphate, 10 mM MgCl2, 1 mM dithiothreitol, 50 μm sodium vanadate, 10 μCi γ^32P-ATP 4300 Ci/mmole. The kinase reaction was linear from 0-30 min. MAPK Assay MAPK activity was measured exactly as described previously (Gardner, A. M., et al. (1994) Meth. Enzymol. 238:258-270) with the exception that MonoQ FPLC fractionation was replaced by step elution from a DEAE-Sephacel column using 0.5 M NaCl in loading buffer. The eluate was assayed in triplicate using the epidermal growth factor receptor 662-681 peptide (EGFR662-681) as a selective substrate for MAPK activity (Heasley, L. E., et al. (1994) American Journal of Physiology (Renal Fluid Electrolyte Physiol. 36) 267:F366-F373). […]

A further experiment has as its system p42/p44 MAPK. Description: MAPK assay (DEAE-Sephacel, EGFR662-681 peptide) in L929 cells. It counts as cell-based, murine. As to conditions: L929 cells. On the procedure:
as §1
FIG. 26 depicts the activation of MAPK by bFGF in L929 cells. Serum starved L929 cells were stimulated for 10 min with the indicated concentration of bFGF.
as §2

The target in a further experiment is MEK-1 (Homo sapiens, UniProt Q02750). To be noted: Alessi et al. 1995; cited from earlier work.
Sequence of MEK-1 (Q02750 whole entry, species assumed): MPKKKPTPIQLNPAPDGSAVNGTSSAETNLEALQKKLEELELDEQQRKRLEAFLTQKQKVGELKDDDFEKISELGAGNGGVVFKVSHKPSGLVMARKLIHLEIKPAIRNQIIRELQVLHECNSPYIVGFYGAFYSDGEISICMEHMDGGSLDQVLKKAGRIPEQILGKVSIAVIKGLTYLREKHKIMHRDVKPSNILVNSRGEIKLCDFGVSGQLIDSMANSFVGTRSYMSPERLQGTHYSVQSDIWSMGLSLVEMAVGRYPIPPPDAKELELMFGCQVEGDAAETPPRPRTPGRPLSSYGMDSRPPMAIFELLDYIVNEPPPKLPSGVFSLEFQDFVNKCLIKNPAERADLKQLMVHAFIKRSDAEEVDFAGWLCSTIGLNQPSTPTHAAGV

On to `COc1cccc(-c2cc(=O)c3ccccc3o2)c1N` [PD #098059, reference compound], for which the “inhibition of JNK kinase / activation of JNK” value with JNK is “did not inhibit JNK kinase or the activation of JNK”. In the experiment with L929 cells, the “effect on TNFα-mediated cell death” value is “had no effect on TNFα-mediated apoptosis” and the “effect on the protective action of bFGF against TNFα” value is listed as “inhibited the protective action of bFGF”. The “effect on bFGF stimulation of MAPK activity” value in the experiment on p42/p44 MAPK is given as “inhibited bFGF stimulation of MAPK activity”. The “inhibition of MEK-1” value on MEK-1 is “inhibits the dual specificity protein kinase, MEK-1”.
